Source: PubChem BioAssay AID330 (DTP/NCI, 2004)
Where “and” joins values, the source holds several entries; their conditions need not be identical. Equal values may be shown once. Toxic doses and inconclusive results are not listed.

System: P388 leukemia ip, CD2F1 mice, survival T/C
Experiment: NCI In Vivo Anticancer Drug Screen. Data for tumor model P388 Leukemia (intraperitoneal) in CD2F1 (CDF1) mice
Conditions: endpoint: median survival time, higher = longer survival
In short: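 Mice carrying the transplanted tumor received test compound or vehicle. Survival was recorded in each group, and the value is the treated-group measurement divided by that of the vehicle-treated control group.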

[1] = dose: 100.0 mg/kg/injection, schedule: Q01DX009 (ip), vehicle: saline with Tween-80
[2] = dose: 50.0 mg/kg/injection, schedule: Q01DX005 (ip), vehicle: Klucel (hydroxypropylcellulose) (HPC)
[3] = dose: 100.0 mg/kg/injection, schedule: Q01DX005 (ip), vehicle: Klucel (hydroxypropylcellulose) (HPC)
[4] = dose: 200.0 mg/kg/injection, schedule: Q01DX005 (ip), vehicle: Klucel (hydroxypropylcellulose) (HPC)
[5] = dose: 100.0 mg/kg/injection, schedule: Q01DX001 (ip), vehicle: saline with Tween-80
[6] = dose: 200.0 mg/kg/injection, schedule: Q01DX001 (ip), vehicle: saline with Tween-80
[7] = dose: 50.0 mg/kg/injection, schedule: Q01DX009 (ip), vehicle: saline with Tween-80

`CCOC(=O)c1[nH]cnc1/N=N/N(C)C` was tested, and the T/C [1] was 90 % of control, the T/C (dose: 150.0 mg/kg/injection, schedule: Q04DX003 (ip), vehicle: saline with Tween-80) was 120 % of control and the T/C (dose: 200.0 mg/kg/injection, schedule: Q04DX003 (ip), vehicle: saline with Tween-80) was 150 % of control.
For `COc1cc(OC)c2c(c1)Oc1cc(OC)cc(OC)c1C2`, the T/C [2] was 97 % of control, the T/C [3] was 96 % of control and the T/C [4] was 95 % of control.
With `CC(=O)N/C(=C\c1ccc(Cl)cc1)C(=O)c1ccc(C)cc1` the T/C (dose: 50.0 mg/kg/injection, schedule: Q01DX001 (ip), vehicle: saline with Tween-80) was 99 % of control, the T/C [5] was 97 % of control and the T/C [6] was 97 % of control.
With `NC1C[S][Sn]2([O]C1=O)[O]C(=O)C(N)C[S]2` (stereo not given) the T/C [2] was 99 % of control, the T/C [3] was 100 % of control and the T/C [4] was 100 % of control.
For `CSCCC(NCC(=O)Nc1ccc(S(=O)(=O)c2ccc(NC(=O)CNC(CCSC)C(=O)O)cc2)cc1)C(=O)O` (stereo not given), the T/C [2] was 100 % of control, the T/C [3] was 101 % of control and the T/C [4] was 101 % of control.
With `C=C(CN(C)C)C(=O)c1ccc(OC)cc1OC` the T/C (dose: 1.9 mg/kg/injection, schedule: Q04DX002 (ip), vehicle: saline) was 95 % of control, the T/C (dose: 3.8 mg/kg/injection, schedule: Q04DX002 (ip), vehicle: saline) was 106 % of control and the T/C (dose: 7.5 mg/kg/injection, schedule: Q04DX002 (ip), vehicle: saline) was 102 % of control and 98 % of control.
For `COc1c(C(C)C)ccc2c1CCC1=C3COC(=O)C3CCC12C` (stereo not given), the T/C (dose: 6.25 mg/kg/injection, schedule: Q01DX009 (ip), vehicle: DMSO) was 109 % of control, the T/C (dose: 12.5 mg/kg/injection, schedule: Q01DX009 (ip), vehicle: DMSO) was 99 % of control and the T/C (dose: 25.0 mg/kg/injection, schedule: Q01DX009 (ip), vehicle: DMSO) was 97 % of control.
In the case of `CCC(=O)NC(CC(=O)O)c1cccs1` (stereo not given), the T/C (dose: 12.5 mg/kg/injection, schedule: Q01DX009 (ip), vehicle: saline) is reported as 102 % of control, the T/C (dose: 25.0 mg/kg/injection, schedule: Q01DX009 (ip), vehicle: saline) is reported as 104 % of control and the T/C (dose: 50.0 mg/kg/injection, schedule: Q01DX009 (ip), vehicle: saline) is reported as 107 % of control. The T/C (dose: 100.0 mg/kg/injection, schedule: Q01DX009 (ip), vehicle: saline) was 90 % of control and the T/C (dose: 200.0 mg/kg/injection, schedule: Q01DX009 (ip), vehicle: saline) was 93 % of control.
In the case of `CC(=O)N1c2ccccc2Sc2ccc3ccc(C(=O)CCl)cc3c21`, the T/C [1] is reported as 115 % of control.
`CCCCCC1([N+](=O)[O-])CN(C)CC2CCCCN2C1` (stereo not given) was tested, and the T/C (dose: 100.0 mg/kg/injection, schedule: Q04DX002 (ip), vehicle: saline) was 102 % of control and the T/C (dose: 200.0 mg/kg/injection, schedule: Q04DX002 (ip), vehicle: saline) was 102 % of control.
For `N/C(=N\S(=O)(=O)c1cc(C(F)(F)F)cc(C(F)(F)F)c1)c1ccncc1`, the T/C [7] was 86 % of control and the T/C [1] was 90 % of control.
`Nc1ccc2cc(Cl)[nH]c(=O)c2c1` was tested, and the T/C [2] was 100 % of control, the T/C [3] was 94 % of control and the T/C [4] was 97 % of control.
In the case of `NC(=O)c1cn(C2OC(CO)C(O)C2O)c2ncnc(N)c12` (stereo not given), the T/C (dose: 0.06 mg/kg/injection, schedule: Q03HX024 (ip), vehicle: saline) is reported as 105 % of control, the T/C (dose: 0.13 mg/kg/injection, schedule: Q01DX009 (ip), vehicle: saline) is reported as 100 % of control and the T/C (dose: 0.13 mg/kg/injection, schedule: Q03HX008 (ip), vehicle: saline) is reported as 111 % of control. For the same molecule, the T/C (dose: 0.13 mg/kg/injection, schedule: Q03HX016 (ip), vehicle: saline) was 122 % of control, the T/C (dose: 0.13 mg/kg/injection, schedule: Q03HX024 (ip), vehicle: saline) was 111 % of control and the T/C (dose: 0.25 mg/kg/injection, schedule: Q01DX009 (ip), vehicle: saline) was 111 % of control. For the same molecule, the T/C (dose: 0.25 mg/kg/injection, schedule: Q03HX008 (ip), vehicle: saline) was 111 % of control, the T/C (dose: 0.25 mg/kg/injection, schedule: Q03HX016 (ip), vehicle: saline) was 111 % of control and the T/C (dose: 0.25 mg/kg/injection, schedule: Q03HX024 (ip), vehicle: saline) was 111 % of control. For the same molecule, the T/C (dose: 0.5 mg/kg/injection, schedule: Q01DX005 (ip), vehicle: saline with Tween-80) was 151 % of control, the T/C (dose: 0.5 mg/kg/injection, schedule: Q01DX009 (ip), vehicle: saline) was 105 % of control and the T/C (dose: 0.5 mg/kg/injection, schedule: Q01DX009 (ip), vehicle: suspension in saline) was 154 % of control. For the same molecule, the T/C (dose: 0.5 mg/kg/injection, schedule: Q03HX008 (ip), vehicle: saline) was 111 % of control, the T/C (dose: 0.5 mg/kg/injection, schedule: Q03HX016 (ip), vehicle: saline) was 116 % of control and the T/C (dose: 0.5 mg/kg/injection, schedule: Q03HX024 (ip), vehicle: saline) was 111 % of control. For the same molecule, the T/C (dose: 0.5 mg/kg/injection, schedule: Q04DX003 (ip), vehicle: saline) was 105 % of control, the T/C (dose: 1.0 mg/kg/injection, schedule: Q01DX001 (ip), vehicle: saline) was 111 % of control and the T/C (dose: 1.0 mg/kg/injection, schedule: Q01DX005 (ip), vehicle: saline with Tween-80) was 161 % of control. The T/C (dose: 1.0 mg/kg/injection, schedule: Q01DX009 (ip), vehicle: saline) was 111 % of control, the T/C (dose: 1.0 mg/kg/injection, schedule: Q01DX009 (ip), vehicle: suspension in saline) was 154 % of control and the T/C (dose: 1.0 mg/kg/injection, schedule: Q03HX008 (ip), vehicle: saline) was 94 % of control. For the same molecule, the T/C (dose: 1.0 mg/kg/injection, schedule: Q03HX016 (ip), vehicle: saline) was 122 % of control, the T/C (dose: 1.0 mg/kg/injection, schedule: Q04DX003 (ip), vehicle: saline) was 116 % of control and the T/C (dose: 1.0 mg/kg/injection, schedule: Q08DX002 (ip), vehicle: saline) was 111 % of control. For the same molecule, the T/C (dose: 2.0 mg/kg/injection, schedule: Q01DX001 (ip), vehicle: saline) was 111 % of control, the T/C (dose: 2.0 mg/kg/injection, schedule: Q01DX005 (ip), vehicle: saline with Tween-80) was 169 % of control and the T/C (dose: 2.0 mg/kg/injection, schedule: Q01DX009 (ip), vehicle: saline) was 100 % of control. The T/C (dose: 2.0 mg/kg/injection, schedule: Q01DX009 (ip), vehicle: suspension in saline) was 94 % of control, the T/C (dose: 2.0 mg/kg/injection, schedule: Q04DX003 (ip), vehicle: saline) was 111 % of control and the T/C (dose: 2.0 mg/kg/injection, schedule: Q08DX002 (ip), vehicle: saline) was 111 % of control. For the same molecule, the T/C (dose: 4.0 mg/kg/injection, schedule: Q01DX001 (ip), vehicle: saline) was 122 % of control, the T/C (dose: 4.0 mg/kg/injection, schedule: Q04DX003 (ip), vehicle: saline) was 122 % of control and 118 % of control and the T/C (dose: 4.0 mg/kg/injection, schedule: Q08DX002 (ip), vehicle: saline) was 116 % of control. For the same molecule, the T/C (dose: 8.0 mg/kg/injection, schedule: Q01DX001 (ip), vehicle: saline) was 111 % of control and the T/C (dose: 8.0 mg/kg/injection, schedule: Q08DX002 (ip), vehicle: saline) was 116 % of control.
`COC(=O)c1nc(N)nc(C(=O)OC)c1C(=O)c1cccc([N+](=O)[O-])c1` was tested, and the T/C (dose: 60.0 mg/kg/injection, schedule: Q01DX005 (ip), vehicle: Klucel (hydroxypropylcellulose) (HPC)) was 100 % of control and the T/C (dose: 120.0 mg/kg/injection, schedule: Q01DX005 (ip), vehicle: Klucel (hydroxypropylcellulose) (HPC)) was 101 % of control.
For `Cc1ccc(N=Nc2c(O)n(-c3ccccc3C)c(=S)n(-c3ccc(Br)cc3)c2=O)cc1`, the T/C [7] was 100 % of control and the T/C [1] was 101 % of control.
In the case of `CCN(CC)CCOC(=O)Nc1cc(C)cc(C)c1`, the T/C (dose: 60.0 mg/kg/injection, schedule: Q01DX005 (ip), vehicle: saline with Tween-80) is reported as 94 % of control and the T/C (dose: 120.0 mg/kg/injection, schedule: Q01DX005 (ip), vehicle: saline with Tween-80) is reported as 91 % of control.
For `CC1(C)CC([P+](c2ccccc2)(c2ccccc2)c2ccccc2)=NN1`, the T/C (dose: 0.78 mg/kg/injection, schedule: Q01DX009 (ip), vehicle: saline with Tween-80) was 115 % of control and 119 % of control, the T/C (dose: 12.5 mg/kg/injection, schedule: Q01DX001 (ip), vehicle: saline) was 123 % of control and the T/C (dose: 12.5 mg/kg/injection, schedule: Q01DX009 (ip), vehicle: saline with Tween-80) was 100 % of control. For the same molecule, the T/C (dose: 25.0 mg/kg/injection, schedule: Q01DX001 (ip), vehicle: saline) was 122 % of control.
`CCOc1ccc(Cc2ccc3c(c2)OCO3)cc1C` was tested, and the T/C (dose: 50.0 mg/kg/injection, schedule: Q01DX005 (ip), vehicle: saline with Tween-80) was 101 % of control, the T/C (dose: 100.0 mg/kg/injection, schedule: Q01DX005 (ip), vehicle: saline with Tween-80) was 108 % of control and the T/C (dose: 200.0 mg/kg/injection, schedule: Q01DX005 (ip), vehicle: saline with Tween-80) was 111 % of control.
For `O=C(N/N=C/c1cc(Cl)cc(Cl)c1[O-])c1ccccc1.O=C(N/N=C/c1cc(Cl)cc(Cl)c1[O-])c1ccccc1.[Mn+2]`, the T/C [5] was 98 % of control, the T/C [6] was 99 % of control and the T/C (dose: 400.0 mg/kg/injection, schedule: Q01DX001 (ip), vehicle: saline with Tween-80) was 105 % of control.
